Assay results from publication PMC4684479 (Molecular imaging and biology : MIB : the official …, 2016).

Assays:
[1] = Optical properties of NIR fluorophores in 100% serum, pH 7.4; type: physicochemical
[2] = Stability in warm serum, 24 h, 37°C; type: in vitro ADME; details: 100% serum, pH 7.4, 24 h
[3] = target: bovine serum albumin (Bos taurus, UniProt P02769); experiment: Serum protein binding by gel filtration chromatography; type: in vitro ADME; details: GFC after incubation in bovine serum albumin solution at 37°C for 4 h
Sequence of bovine serum albumin (P02769 25-607): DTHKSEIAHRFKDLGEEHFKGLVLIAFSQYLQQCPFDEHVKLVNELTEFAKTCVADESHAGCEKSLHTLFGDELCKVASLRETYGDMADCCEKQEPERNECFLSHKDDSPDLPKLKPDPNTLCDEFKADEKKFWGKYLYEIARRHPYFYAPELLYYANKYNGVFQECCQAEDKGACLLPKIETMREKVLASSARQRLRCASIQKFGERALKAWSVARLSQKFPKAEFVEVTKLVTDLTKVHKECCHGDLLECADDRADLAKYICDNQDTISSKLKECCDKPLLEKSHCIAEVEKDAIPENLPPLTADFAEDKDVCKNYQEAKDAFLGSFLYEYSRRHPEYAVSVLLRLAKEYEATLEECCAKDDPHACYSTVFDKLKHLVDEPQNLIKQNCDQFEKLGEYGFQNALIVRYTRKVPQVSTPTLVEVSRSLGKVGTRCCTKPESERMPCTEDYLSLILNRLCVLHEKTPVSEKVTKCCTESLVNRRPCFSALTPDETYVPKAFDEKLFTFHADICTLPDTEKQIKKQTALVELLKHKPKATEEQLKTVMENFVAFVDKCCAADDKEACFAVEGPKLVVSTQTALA

[4] = design: species or system Sprague-Dawley rat; details: rat, in vivo, iv
[5] = in serum; cited from earlier work
[6] = conventional NIR fluorophores; cited from earlier work

Absorbance Maximum [1] [nm] | Emission Maximum [1] [nm] | Extinction Coefficient [1] | Quantum Yield [1] [%] | Stokes Shift [1] [nm] | Stability (%) at 24 h, 37°C [2] [%] | Serum protein binding [3] | SMILES | clearance route seen by dual-channel imaging [4] | molar extinction coefficient (ε) [5] | quantum yield (QY) [5] [%] | LogD at pH 7.4 [6]
646 | 663 | 199,000 M^−1cm^−1 | 19.5 | 17 | 99 |  | CC1(C)C(/C=C/C(=C/C=C2/N(CCC[N+](C)(C)C)c3ccc(S(=O)(=O)[O-])cc3C2(C)C)c2ccc(CCC(=O)[O-])cc2)=[N+](CCC[N+](C)(C)C)c2ccc(S(=O)(=O)[O-])cc21 [ZW700-1c] |  |  |  | 
665 | 685 | 71,200 M^−1cm^−1 | 3.8 | 20 | 99 |  | CN(C)c1ccc2nc3ccc(=[N+](C)C)cc-3sc2c1 [Methylene Blue] |  |  |  | 
 |  |  |  |  |  | significant serum protein binding | CC1(C)C(/C=C/C=C/C=C/C=C2\N(CCCCS(=O)(=O)[O-])c3ccc4ccccc4c3C2(C)C)=[N+](CCCCS(=O)(=O)[O-])c2ccc3ccccc3c21.[Na+] [ICG] | extracted from blood by the liver and excreted into bile | 121,000 M^−1cm^−1 | 9.3 | 
 |  |  |  |  |  |  | CC1(C)C(=CC=C2CCCC(C=CC3=[N+](CCCCCC(=O)[O-])c4ccc(S(=O)(=O)[O-])cc4C3(C)C)=C2Oc2ccc(S(=O)(=O)[O-])cc2)N(CCCCS(=O)(=O)[O-])c2ccc(S(=O)(=O)[O-])cc21.[Na+].[Na+].[Na+].[Na+] [IRDye 800CW] |  |  |  | 2.51
